This note sets out measurements from patent publication US8436011B2, “Pyridinopyridinone derivatives, preparation thereof and therapeutic use thereof” (Sanofi, priority 2008, dated 2013).

Counter-ions that a name gives are not always drawn. Bounds are passed on as bounds.

Molecule `CCN1CCCC1CNC(=O)Cc1cccc(-c2ccc3c(=O)c(C(=O)NC)c(N)n(CC)c3n2)c1` (stereo not shown) (as salt: HCl) [compound 62, 2-amino-1-ethyl-7-[3-(2-{[(1-ethylpyrrolidin-2-yl)methyl]amino}-2-oxoethyl)phenyl]-N-methyl-4-oxo-1,4-dihydro-1,8-naphthyridine-3-carboxamide] showed a melting point of 213 °C.

The molecule `CCn1c(N)c(C(=O)NC)c(=O)c2ccc(-c3cccc(CC(=O)Nc4ccccn4)c3)nc21` (as salt: HCl) [compound 63, 2-amino-1-ethyl-N-methyl-4-oxo-7-{3-[2-oxo-2-(pyrid-2-ylamino)ethyl]-phenyl}-1,4-dihydro-1,8-naphthyridine-3-carboxamide] had a melting point of 176 °C.

As for `CCn1c(N)c(C(=O)NC)c(=O)c2ccc(-c3ccc(CCNc4ccccn4)cc3)nc21` (as salt: HCl) [compound 64, 2-amino-1-ethyl-N-methyl-4-oxo-7-{4-[2-(pyrid-2-ylamino)ethyl]phenyl}-1,4-dihydro-1,8-naphthyridine-3-carboxamide], the melting point was 242 °C.

Molecule `CCn1c(N)c(C(=O)NC)c(=O)c2ccc(-c3ccc(CC(=O)NC[C@H]4CCCN4CCF)cc3)nc21` (as salt: hydrochloride) [compound 27, 2-amino-1-ethyl-7-{4-[2-({[(2R)-1-(2-fluoroethyl)pyrrolidin-2-yl]methyl}-amino)-2-oxoethyl]phenyl}-N-methyl-4-oxo-1,4-dihydro-1,8-naphthyridine-3-carboxamide] returned a melting point of 180 °C.

`CCn1c(N)c(C(=O)NC)c(=O)c2ccc(-c3ccc(CC(=O)NCCOC)cc3)nc21` [compound 9, 2-amino-1-ethyl-7-(4-{2-[(2-methoxyethyl)amino]-2-oxoethyl}phenyl)-N-methyl-4-oxo-1,4-dihydro-1,8-naphthyridine-3-carboxamide] had a melting point of 262 °C.

`CCn1c(N)c(C(=O)NC)c(=O)c2ccc(-c3ccc(CC(=O)NC4CC4)cc3)nc21` [compound 10, 2-amino-7-{4-[2-(cyclopropylamino)-2-oxoethyl]phenyl}-1-ethyl-N-methyl-4-oxo-1,4-dihydro-1,8-naphthyridine-3-carboxamide] showed a melting point greater than 260 °C.

In turn, `CCn1c(N)c(C(=O)NC)c(=O)c2ccc(-c3ccc(CC(=O)NC(C)C)cc3)nc21` [compound 11, 2-amino-1-ethyl-N-methyl-7-(4-{2-[(1-methylethyl)amino]-2-oxoethyl}-phenyl)-4-oxo-1,4-dihydro-1,8-naphthyridine-3-carboxamide] registered a melting point of 315 °C.

In the case of `CCn1c(N)c(C(=O)NC)c(=O)c2ccc(-c3ccc(CC(=O)Nc4cnccn4)cc3)nc21` [compound 13, 2-amino-1-ethyl-N-methyl-4-oxo-7-{4-[2-oxo-2-(pyrazin-2-ylamino)ethyl]-phenyl}-1,4-dihydro-1,8-naphthyridine-3-carboxamide], the melting point worked out at 290 °C.

In turn, `CCN1CCC[C@H]1CNC(=O)Cc1ccc(-c2ccc3c(=O)c(C(=O)NC)c(N)n(CC)c3n2)cc1` [compound 15, 2-amino-1-ethyl-7-{4-[2-({[(2S)-1-ethylpyrrolidin-2-yl]methyl}amino)-2-oxoethyl]phenyl}-N-methyl-4-oxo-1,4-dihydro-1,8-naphthyridine-3-carboxamide] came in with a melting point of 262 °C.

As to `CCn1c(N)c(C(=O)NC)c(=O)c2ccc(-c3ccc(CC(=O)Nc4ccccn4)nc3)nc21` [compound 21, 2-amino-1-ethyl-N-methyl-4-oxo-7-{6-[2-oxo-2-(pyrid-2-ylamino)-ethyl]pyrid-3-yl}-1,4-dihydro-1,8-naphthyridine-3-carboxamide], the melting point was found to be 266 °C.

In turn, `CCn1c(N)c(C(=O)NC)c(=O)c2ccc(-c3ccc(CC(=O)NC[C@H]4CCCN4S(C)(=O)=O)cc3)nc21` [compound 28, 2-amino-1-ethyl-N-methyl-7-{4-[2-({[(2R)-1-(methylsulfonyl)pyrrolidin-2-yl]methyl}amino)-2-oxoethyl]phenyl}-4-oxo-1,4-dihydro-1,8-naphthyridine-3-carboxamide] had a melting point greater than 260 °C.

On to `CCn1c(N)c(C(=O)NC)c(=O)c2ccc(-c3ccc(CC(=O)NC[C@H]4CCCN4CC(F)(F)F)cc3)nc21` [compound 30, 2-amino-1-ethyl-N-methyl-4-oxo-7-{4-[2-oxo-2-({[(2R)-1-(2,2,2-trifluoroethyl)pyrrolidin-2-yl]methyl}amino)ethyl]phenyl}-1,4-dihydro-1,8-naphthyridine-3-carboxamide], for which the melting point is greater than 260 °C.

`CCn1c(N)c(C(=O)NC)c(=O)c2ccc(-c3ccc(CC(=O)NCCc4cccn4C)cc3)nc21` [compound 42, 2-amino-1-ethyl-N-methyl-7-[4-(2-{[2-(1-methyl-1H-pyrrol-2-yl)-ethyl]amino}-2-oxoethyl)phenyl]-4-oxo-1,4-dihydro-1,8-naphthyridine-3-carboxamide] came in with a melting point of 252 °C.

Molecule `CCN1CCCC1CNC(=O)CCc1ccc(-c2ccc3c(=O)c(C(=O)NC)c(N)n(CC)c3n2)cc1` (stereo not shown) [compound 46, 2-amino-1-ethyl-7-[4-(3-{[(1-ethylpyrrolidin-2-yl)methyl]amino}-3-oxopropyl)phenyl]-N-methyl-4-oxo-1,4-dihydro-1,8-naphthyridine-3-carboxamide] yielded a melting point of 218 °C.

With `CCN1CCCC1CNC(=O)Cc1ccc(-c2ccc3c(=O)c(C(=O)NC)c(N)n(CC(F)(F)F)c3n2)cc1` (stereo not shown) [compound 49, 2-amino-7-[4-(2-{[(1-ethylpyrrolidin-2-yl)methyl]amino}-2-oxoethyl)-phenyl]-N-methyl-4-oxo-1-(2,2,2-trifluoroethyl)-1,4-dihydro-1,8-naphthyridine-3-carboxamide], the melting point is 300 °C.

In turn, `CCN1CCC[C@@H]1CNC(=O)Cc1ccc(-c2ccc3c(=O)c(C(=O)NC)c(N)n(CC(C)C)c3n2)cc1` [compound 53, 2-amino-7-{4-[2-({[(2R)-1-ethylpyrrolidin-2-yl]methyl}amino)-2-oxoethyl]-phenyl}-N-methyl-1-(2-methylpropyl)-4-oxo-1,4-dihydro-1,8-naphthyridine-3-carboxamide] displayed a melting point of 233 °C.

`CCN1CCC[C@@H]1CNC(=O)Cc1nc(-c2ccc3c(=O)c(C(=O)NC)c(N)n(CC)c3n2)cs1` [compound 55, 2-amino-1-ethyl-7-{2-[2-({[(2R)-1-ethylpyrrolidin-2-yl]methyl}amino)-2-oxoethyl]-1,3-thiazol-4-yl}-N-methyl-4-oxo-1,4-dihydro-1,8-naphthyridine-3-carboxamide] showed a melting point of 214 °C.

For `CCN1CCC[C@@H]1CNC(=O)Cc1ccc(-c2ccc3c(=O)c(C(=O)NC)c(N)n(CC)c3n2)c(F)c1` [compound 56, 2-amino-1-ethyl-7-{4-[2-({[(2R)-1-ethylpyrrolidin-2-yl]methyl}amino)-2-oxoethyl]-2-fluorophenyl}-N-methyl-4-oxo-1,4-dihydro-1,8-naphthyridine-3-carboxamide], the melting point was determined as 253 °C.

Regarding `CCN1CCCC1CNC(=O)Cc1ccc(-c2ccc3c(=O)c(C(=O)NC)c(N)n(CC)c3n2)cc1F` (stereo not shown) [compound 58, 2-amino-7-[3-fluoro-4-(2-{[(1-ethylpyrrolidin-2-yl)methyl]amino}-2-oxoethyl)phenyl]-1-ethyl-N-methyl-4-oxo-1,4-dihydro-1,8-naphthyridine-3-carboxamide], the melting point is 275 °C.

Usually melting point stands for the temperature, or range, at which the solid turns liquid.
